Data published in patent US10246439B2, “Apoptosis signal-regulating kinase 1 inhibitors and methods of use thereof” (ENANTA PHARMACEUTICALS, INC., priority 2017, dated 2019).

Target: T1, ASK1 (Homo sapiens, UniProt Q99683)
T1 construct: purchased Thermofisher PV4011
T1 sequence (Q99683 1-1374): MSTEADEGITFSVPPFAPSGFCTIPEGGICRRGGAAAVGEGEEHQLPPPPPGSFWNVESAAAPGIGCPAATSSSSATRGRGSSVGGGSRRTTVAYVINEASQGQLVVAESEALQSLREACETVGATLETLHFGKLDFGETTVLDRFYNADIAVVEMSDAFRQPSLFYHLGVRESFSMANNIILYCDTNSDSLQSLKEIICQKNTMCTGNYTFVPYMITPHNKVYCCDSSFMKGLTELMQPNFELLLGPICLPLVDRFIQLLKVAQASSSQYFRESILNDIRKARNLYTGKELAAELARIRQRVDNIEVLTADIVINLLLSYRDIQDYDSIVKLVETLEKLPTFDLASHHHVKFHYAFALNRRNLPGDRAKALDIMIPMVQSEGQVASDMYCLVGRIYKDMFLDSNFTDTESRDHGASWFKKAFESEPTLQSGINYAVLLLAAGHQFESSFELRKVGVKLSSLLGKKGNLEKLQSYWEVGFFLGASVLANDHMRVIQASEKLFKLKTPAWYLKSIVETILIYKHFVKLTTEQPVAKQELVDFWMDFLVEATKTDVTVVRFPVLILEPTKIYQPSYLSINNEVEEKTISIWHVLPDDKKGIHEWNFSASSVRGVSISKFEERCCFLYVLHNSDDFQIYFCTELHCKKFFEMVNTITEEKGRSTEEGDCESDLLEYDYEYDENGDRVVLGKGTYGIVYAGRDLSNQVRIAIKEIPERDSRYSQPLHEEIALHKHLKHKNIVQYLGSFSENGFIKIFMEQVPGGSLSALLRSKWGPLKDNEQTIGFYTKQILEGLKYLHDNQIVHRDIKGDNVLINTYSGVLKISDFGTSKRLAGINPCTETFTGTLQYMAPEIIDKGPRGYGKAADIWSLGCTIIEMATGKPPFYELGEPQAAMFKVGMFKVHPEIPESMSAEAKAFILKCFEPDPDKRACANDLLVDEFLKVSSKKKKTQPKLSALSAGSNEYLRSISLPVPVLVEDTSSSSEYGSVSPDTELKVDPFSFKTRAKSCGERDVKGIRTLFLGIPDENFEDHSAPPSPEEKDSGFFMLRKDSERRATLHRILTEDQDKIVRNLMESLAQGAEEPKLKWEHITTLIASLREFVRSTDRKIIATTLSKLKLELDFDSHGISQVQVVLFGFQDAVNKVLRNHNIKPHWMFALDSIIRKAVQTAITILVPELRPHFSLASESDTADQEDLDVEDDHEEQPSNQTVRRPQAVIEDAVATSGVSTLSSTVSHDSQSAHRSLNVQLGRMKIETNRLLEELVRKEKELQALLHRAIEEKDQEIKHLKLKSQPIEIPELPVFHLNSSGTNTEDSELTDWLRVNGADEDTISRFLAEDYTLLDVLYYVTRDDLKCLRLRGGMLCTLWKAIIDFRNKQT
Test: HTRF KinEASE-STK TR-FRET kinase assay, inhibition of ASK1
Type: biochemical
Details: 5 nM ASK1, 1 uM STK3 peptide substrate, 100 uM ATP
Description: ASK1 was purchased from Thermofisher (Catalogue # PV4011), ATP was purchased from Sigma (Catalogue # A7699), HTRF® KinEASE™ Assay System was obtained from Cisbio (Bedford, Mass.). ½ Area plate was purchased from Perkin Elmer (Catalogue # #6005560). HTRF® KinEASE™-STK is a generic method for measuring serine/threonine kinase activities using a time-resolved fluorescence resonance energy transfer (TR-FRET) immunoassay. The IC50 value for each compound was determined in the presence of compound (various concentration from 0 to 10 μM) and a fixed amount of ATP and peptide substrates. The test compound, 1 uM STK3 peptide substrate, and 5 nM of ASK1 kinase are incubated with kinase reaction buffer containing 50 mM HEPES pH 7.5, 0.01% BRIJ-35, 10 mM MgCl2, and 1 mM EGTA for 30 minutes. 100 uM ATP is added to start kinase reaction and incubated for 3 hours. The STK3-antibody labeled with Eu^3+-Cryptate and 125 nM streptavidin-XL665 are mixed in a single addition with stop reagents provided by the Cisbio kit used to stop the kinase reaction. Fluorescence is detected using an Envision Multilabeled 2014 reader from PerkinElmer. The Fluorescence is measured at 615 nm (Cryptate) and 665 nm (XL665) and a ratio of 665 nm/615 nm is calculated for each well. The resulting TR-FRET is proportional to the phosphorylation level. Staurosporine was used as the positive control. IC50 was determined by XLfit 5.3.

Row | IC50 [nM] | Structure (SMILES)
1 | 1 to 10 | CC(C)n1cnnc1-c1cccc(NC(=O)c2cc3sc(N4CCN(C5CC5)CC4)nc3cc2F)n1 [Example 12]
2 | 1 to 10 | CC(C)n1cnnc1-c1cccc(NC(=O)c2cc3sc(N(C)C4CCCCC4)nc3cc2F)n1 [Example 8]
3 | 10 to 100 | CC(C)n1cnnc1-c1cccc(NC(=O)c2ccc3nc(N4CC5(COC5)C4)sc3c2)n1 [Example 18]
4 | > 1000 | CC(C)n1nnnc1-c1cccc(NC(=O)c2cc3sc(N(C)CC4CC4)nc3cc2F)n1 [Example 39]
5 | 1 to 10 | CC(C)n1cnnc1-c1cccc(NC(=O)c2cc3sc(N4CCC4)nc3cc2F)n1 [Example 28]
6 | 1 to 10 | CCCCN(C)c1nc2cc(F)c(C(=O)Nc3cccc(-c4nncn4C(C)C)n3)cc2s1 [Example 9]
7 | 1 to 10 | CC(C)n1cnnc1-c1cccc(NC(=O)c2cc3sc(N4CCCC4)nc3cc2F)n1 [Example 50]
8 | > 1000 | CC(C)n1nnnc1-c1cccc(NC(=O)c2cc3sc(C4CC4)nc3cn2)n1 [Example 70]
9 | 10 to 100 | CC(C)n1nnnc1-c1cccc(NC(=O)c2cc3sc(N4CCOCC4)nc3cc2F)n1 [Example 46]
10 | > 1000 | CC(C)n1nnnc1-c1cccc(NC(=O)c2cc3sc(NC4CCCCC4)nc3cc2F)n1 [Example 34]
11 | 10 to 100 | CC(C)n1cnnc1-c1cccc(NC(=O)c2ccc3nc(N4CCOCC4)sc3c2)n1 [Example 61]
12 | 100 to 1000 | CC(C)n1cnnc1-c1cccc(NC(=O)c2ccc3nc(-c4ccccc4)sc3c2)n1 [Example 22]
13 | 10 to 100 | CC(C)n1cnnc1-c1cccc(NC(=O)c2ccc3nc(N4CCN(C(C)(C)C)CC4)sc3c2)n1 [Example 59]
14 | 100 to 1000 | CC(C)n1cnnc1-c1cccc(NC(=O)c2ccc3ncn(C)c3c2)n1 [Example 1, N-(6-(4-isopropyl-4H-1,2,4-triazol-3-yl)pyridin-2-yl)-1-methyl-1H-benzo[d]imidazole-6-carboxamide]
15 | 10 to 100 | CC(C)n1nnnc1-c1cccc(NC(=O)c2cc3sc(N(C)C)nc3cn2)n1 [Example 75]
16 | > 1000 | CC(C)n1nnnc1-c1cccc(NC(=O)c2cc3sc(N4CCC(C(C)(C)C)CC4)nc3cc2F)n1 [Example 41]
17 | 10 to 100 | CC(C)n1cnnc1-c1cccc(NC(=O)c2ccc3nc(N4C5CCCC4CC5)sc3c2)n1 [Example 51]
18 | 1 to 10 | CC(C)n1cnnc1-c1cccc(NC(=O)c2cc3sc(NC4CCCCC4)nc3cc2F)n1 [Example 26]
19 | > 1000 | CC(C)n1cnnc1-c1cccc(NC(=O)c2cc3sc(N4CCC(C(C)(C)C)CC4)nc3cn2)n1 [Example 73]
20 | 10 to 100 | CC(C)n1cnnc1-c1cccc(NC(=O)c2cc3sc(N4CCC(C(C)(C)C)CC4)nc3cc2F)n1 [Example 29]
21 | > 1000 | CC(C)n1cnnc1-c1cccc(NC(=O)c2ccc3nc(-c4ccc(C(C)(C)C)cc4)sc3c2)n1 [Example 58, 2-(4-(tert-butyl)phenyl)-N-(6-(4-isopropyl-4H-1,2,4-triazol-3-yl)pyridin-2-yl)benzo[d]thiazole-6-carboxamide]
22 | 1 to 10 | CNc1nc2cc(F)c(C(=O)Nc3cccc(-c4nncn4C(C)C)n3)cc2s1 [Example 49, 5-fluoro-N-(6-(4-isopropyl-4H-1,2,4-triazol-3-yl)pyridin-2-yl)-2-(methylamino)benzo[d]thiazole-6-carboxamide]
23 | > 1000 | CC(C)n1nnnc1-c1cccc(NC(=O)c2cc3sc(N4CCC(C(C)(C)C)CC4)nc3cn2)n1 [Example 68]
24 | 100 to 1000 | CC(C)n1cnnc1-c1cccc(NC(=O)c2ccc3nc(N4CCN(C5CC5)CC4)sc3c2)n1 [Example 55]
25 | 10 to 100 | CC(C)n1nnnc1-c1cccc(NC(=O)c2cc3sc(N(C)C)nc3cc2F)n1 [Example 5]
26 | > 1000 | CC(C)n1nnnc1-c1cccc(NC(=O)c2cc3sc(C4CC4)nc3cc2F)n1 [Example 31]
27 | 100 to 1000 | CC(C)n1cnnc1-c1cccc(NC(=O)c2ccc3nc(N4CCC4)sc3c2)n1 [Example 21]
28 | 1 to 10 | CC(C)n1cnnc1-c1cccc(NC(=O)c2cc3sc(N4CCOCC4)nc3cc2F)n1 [Example 16]
29 | 10 to 100 | CC(C)n1cnnc1-c1cccc(NC(=O)c2cc3sc(N4CCN(C(C)(C)C)CC4)nc3cn2)n1 [Example 74]
